Measurements from patent publication US8916571B2, “Methods of treating cancer using inhibitors of 5′-methylthioadenosine phosphorylase” (Albert Einstein College of Medicine of Yeshiva University, priority 2006, dated 2014).
Entries after “also recorded” stand apart in the source; their conditions may differ.

Columns and labels:
[1] = system: SCC25 cells; experiment: Time dependent proliferation of SCC25 cells (WST-1 assay); type: cell-based, human; details: 1 μM compound + 20 μM MTA
Method: (§1) SCC25 cells were maintained in MEM Eagle's media supplemented with 10% fetal bovine serum, 100 units/ml penicillin, 100 μg/mL streptomycin, 0.1 mM non essential amino acids and 1 mM sodium pyruvate. Cell survival was evaluated using the WST-1 assay (Kicska G A, long Li, Hong H, et al. Proc Natl Acad Sci USA 2001; 98:4593-98). Cells were seeded onto 96 well plates at a density of 10^4 cells per well, with either no additions, 1 μM MT-compound (2), 20 μM MTA or 1 μM compound (2)+20 μM MTA. IC50 was determined following the manufacturer's protocol (Roche Applied Science, Ind.). Cells were grown and measured in triplicate or quadruplicate and the error bars show the mean±SD of the multiple samples.

[2] = system: PC3 cells; experiment: Clonogenic survival assay of PC3 cells; type: cell-based, human; details: combination treatment with MTA, approximately 2 weeks
Method: • 1. 60% confluent plates of experimental cell line was taken and subjected to trypsinization • 2. Single cell suspension of the experimental cell line was made in the regular growth medium and number of cells per mililiter of suspension counted • 3. A fixed low number of cells were plated out in a volume of 3 ml of growth medium in each well of 6 well culture dishes and incubated overnight at 37° C. in a CO2 incubator • 4. Measured volumes of the inhibitor and substrate solutions in sterile deionised cell culture water was added to each well of the 6 well plates. Typically each concentration of inhibitor and/or substrate was added in triplicate wells to calculate error bars. […] At the end of the period of incubation growth medium was removed from each well, attached cells were washed once with PBS and fixed by addition of […] Formalin solution to each well and keeping at room temperature for ˜1 hour. • 7. […] Number of crystal violet stained colonies in each well containing more than 60 cells per colony was counted. • 10. Assuming each colony originated from a single surviving cell post-treatment and taking the number of colonies in the untreated control well as 1, the fraction of surviving cells in each well was calculated and plotted in a graph. […]

[3] = system: normal human fibroblast cells (GM02037); experiment: Cytotoxicity on normal human fibroblast cells; type: cell-based; details: GM02037 cells treated with compound and MTA for 3 weeks
Method: In order to determine whether the inhibition is selective for malignant cells, normal human fibroblast cells (GM02037) were also treated with compound (2) and MTA for 3 weeks. […] This selectivity is a further indication that the MTAP inhibitors described above are useful agents for the treatment of head and neck cancer.

[4] = system: Cal27 cells; experiment: Cal27 cells grown 8 days with compound and MTA; type: cell-based; details: 1 μM compound + 20 μM MTA, G2/M arrest and apoptosis
Method: FIGS. 25A and 25B show Cal27 cells grown for 8 days as control (untreated), in the presence of 20 μM MTA, 1 μM compound (2) alone or in combination (1 μM compound (2)+20 μM MTA).

[5] = system: liver polyamine levels; experiment: Short-term treatment of mice, liver polyamine analysis; type: in vivo, mouse; details: short-term treatment (24, 48 hours, 7 days), 100 μM in drinking water
Method: C56BI/6 mice were treated with 100 μM compound (2) via their drinking water and sacrificed at 24, 48 hours, and 7 days. Livers were immediately removed for polyamine analysis. TRAMP mice were treated approximately 6-8 months with 100 μM compound (2) via their drinking water and control sacrificed. Livers were removed for polyamine analysis.
(§2) Spent media and perchloric acid extracts of both PC3 cells and tissue samples were subjected to purification via cation exchange chromatography and dansyl-derivatized with minor changes. Disposable 10 ml BIO-RAD columns were centrifuged at 4,000 rpm for 3 minutes. Sodium carbonate used for derivatization was adjusted to pH 9.3 and the concentration of dansyl-chloride was adjusted to 100 mM. Dansyl-polyamines were quantitated by a Waters HPLC/Fluorescence system. A Phenomenex Luna 5μ C18 column was used with a mobile phase of 30% acetonitrile in a 50 mM ammonium acetate buffer at pH 6.8 (eluent A) and 100% acetonitrile (eluent B). Fluorescence detection was monitored by excitation at 338 nm and emission at 500 nm.
Short-Term: Mice were treated with sterile solutions of 100 μM compound (2) (pH ˜6.4). Water bottles were autoclaved prior to filling with sterile inhibitor solutions. Mice were sacrificed at 1, 2, and 7 days, with three mice in each group, with the control group sacrificed after 7 days. […]

[6] = system: FaDu cells; experiment: Time dependent proliferation (WST-1) and phase contrast microscopy of FaDu cells; type: cell-based, human
Method: as §1, with “FaDu” for “SCC25”, “Honig” for “Hong”, “compound” for “MT-compound”, “MTA,” for “MTA.”
FaDu cells were subjected to six days in culture using the same conditions described as for Example 4.

[7] = system: FaDu cells; experiment: Cell cycle and apoptosis analysis of FaDu cells (propidium staining, FACS); type: cell-based, human; details: for Apoptosis / G1 / G2 / S: 6 days
Method: as §1, with “FaDu” for “SCC25”, “Honig” for “Hong”, “compound” for “MT-compound”, “MTA,” for “MTA.”
FaDu cells were subjected to six days in culture using the same conditions described as for Example 4, before staining with propidium […] and FACS cell sorting analysis.

[8] = system: PC3 cells; experiment: Quantitation of polyamines in PC3 cells and spent media (HPLC fluorescence); type: cell-based, human
Method: PC3 cells were cultured and treated in triplicate as follows: untreated control, 20 μM substrate (MTA) alone, 1 μM compound (2) alone, or a combination of both substrate and inhibitor. Both cells and spent media were harvested at 1, 6, and 12 days for polyamine analysis by HPLC fluorescence.
as §2

[9] = system: PC3 cells; experiment: Time dependent proliferation of PC3 cells (WST-1 assay); type: cell-based, human; details: 1 μM compound + 20 μM MTA
Method: as §1, with “PC3” for “SCC25”, “compound” for “MT-compound”

[10] = system: FaDu xenografts; experiment: FaDu xenograft study in NOD-SCID mice; type: in vivo, mouse
Method: NOD-SCID mice (6-8 weeks old) were obtained from Jackson Laboratory (Bar Harbor, Me.). FaDu cells (10^6) were inoculated into the dorsum of the hind foot. After 5 days, mice were treated with 9 mg/kg or 21 mg/kg body weight of compound (2) in drinking water or by daily i.p. injections of 5 mg/kg body weight of compound (2). After inoculation mice were assigned to treatment or control groups (n=5). Tumor volume (V) was determined from: V=(4/3)*(22/7)*1/8*(length*width*height). Differences between treatment cohorts were determined using the Student's t test. Mice were weighed every 4-5 days, monitored for hair loss, loss of appetite, vomiting and diarrhea. Total and differential blood and bone marrow analyses were performed after treatment with compound (2).

[11] = system: TRAMP (transgenic adenocarcinoma of mouse prostate) mice; experiment: Treatment of TRAMP mice (tumour mass, metastasis, MRI, histology, polyamines); type: in vivo; details: for prostate cancer progression: alone or in combination with MTA; for tumour weight upon dissection: TRAMP mouse treated with 1 mM compound
Method: MRI experiments were performed using a 9.4T 21 cm bore horizontal bore magnet (Magnex Scientific) Varian INOVA MRI system (Fremont, Calif.) equipped with a 28 mm inner diameter quadrature birdcage coil. Mice were anesthetized with isoflurane inhalation anesthesia (1-1.5% in 100% O2 administered via a nose cone) and positioned in the MRI coil. Body temperature was maintained (37-38° C.) using a homeothermic warming system. After acquiring scout images, multi-slice spin-echo imaging with an echo time of 18 ms and a repetition time of 400 ms ms was performed. A 40 mm field of view with a 256×256 matrix size was used. Nine to 15 slices along the transverse, sagittal, and coronal planes were acquired in each multi-slice experiment with a slice thickness of 1 mm and the gap between slices of 0.5 mm. MRI data were processed off-line with MATLAB-based MRI analysis software.
as §2
Long-Term: Sterile solutions of 100 μM compound (2) (pH ˜6.4). Water bottles were autoclaved prior to filling with sterile inhibitor solutions. Water consumption was monitored every other day, with fresh inhibitor solution being administered to prevent bacterial growth. Mice were control-sacrificed and tissues (genitourinary system, liver, lungs) were collected for histology and polyamine analysis. Mass and dimensions of excised genitourinary system tumours were recorded. Sections of small intestine were also removed for toxicity analysis via H&E staining.

[12] = system: mouse lung cancer cells (3LL); experiment: Mouse 3LL lung cancer cell culture study; type: cell-based
Method: Growth of 3LL and RM1 cells was in Dulbecco's modified Eagle's medium containing serum and antibiotics with 5 mM sodium pyruvate and 0.25 mM non essential amino acid mixture (Gibco). Compound (1) was added as a sterile solution and MTA was absent or present at 20 μM.

[13] = TRAMP mice, 100 μM in drinking water, n=12, 29 ± 7 weeks treated

SMILES: CSC[C@H]1CN(Cc2c[nH]c3c(N)ncnc23)C[C@@H]1O [compound (2)]
- cell proliferation [1]: reduces cell proliferation
- effect on PC3 cells in clonogenic assay [2]: cytostatic effect
- cytotoxicity [3]: No cytotoxicity was observed
- number of viable Cal27 cells [4]: decreased
- polyamine levels of mice livers [5]: not significantly altered
- cell proliferation ([6]; 1 μM compound + 20 μM MTA): reduces cell proliferation
- cell growth (phase contrast photographs) ([6]; 5 days, inhibitor compound + MTA): effective in inhibiting cell growth
- stopping cell cycling / apoptosis ([7]; in combination with MTA): effective for stopping cell cycling
- intracellular PUT levels ([8]; 1 μM compound + 20 μM MTA, 1 day): 3.03×10^−3±2.86×10^−2 pmoles PUT/mg protein
- SPN levels in spent media ([8]; compound + MTA, 1 day): slightly decreased
- increase in intracellular PUT levels vs control ([8]; compound + MTA, 1 day): 6 fold
- increase in intracellular SPD levels vs control ([8]; compound + MTA, 1 day): ~2.5 fold
- increase in spent media PUT levels vs control ([8]; compound + MTA, 1 day): 2 fold
- intracellular SPD levels ([8]; compound + MTA, 1 day): 7.19×10^−3±4.38×10^−2 pmoles SPD/mg protein
- spent media PUT levels ([8]; compound + MTA, 1 day): 1.19×10^3±2.04×10^−1 pmoles PUT/mL spent media
- PUT level vs control ([8]; compound + MTA, 6 days): elevated
- SPD level vs control ([8]; compound + MTA, 6 days): elevated
- decrease in cellular SPN levels vs control ([8]; compound + MTA, 6 days): roughly 0.5 fold
- levels of PUT in spent media ([8]; compound + MTA, 6 days): 2.41×10^−3±7.35×10^−1 pmoles PUT/mL spent media
- levels of PUT in spent media relative to control ([8]; compound + MTA, 6 days): almost double that of the control
- cellular SPD levels ([8]; compound + MTA, day 12): 9.05×10^−3±1.09×10^−3 pmoles SPD/mg protein
- intracellular PUT levels vs controls ([8]; compound + MTA, day 12): significantly higher than controls
- cell proliferation [9]: reduces cell proliferation
- regrowth of tumor after treatment removed ([10]; 28 days after end of 28 day therapy, two highest doses): no regrowth of tumor
- animal weight, total and differential blood counts vs control ([10]; NOD-SCID mice, after 28 day treatment): No significant differences
- growth of established FaDu xenografts ([10]; NOD-SCID mice, oral or i.p., with or without MTA): significantly slower than in controls; also recorded: significantly delays the growth
- Metastatic Cancer [11, 13]: 8%
- Tumor Size [11, 13]: 1.7 ± 0.8 g
- prostate cancer progression ([11]; TRAMP mice): inhibited
- toxicity: intestinal crypts (H&E), hair loss, GI problems ([11]; TRAMP mice, long-term treatment): No alterations, inflammations, or irregularities were observed
- tumour weight upon dissection ([11]; dissection at 34 weeks of age (Panel E)): 0.41 g
- tumour weight upon dissection ([11]; dissection at 39 weeks of age (Panel F)): 0.64 g
- TRAMP liver or GUS polyamine levels ([11]; extended treatment, 100 μM in drinking water): no significant alterations
- size and incidence of preinvasive tumors, incidence of invasive cancer and metastasis ([11]; treated TRAMP mice, histology): decreased

SMILES: CSC[C@H]1O[C@@H](n2cnc3c(N)ncnc32)[C@H](O)[C@@H]1O [MTA, methylthioadenosine]
- Apoptosis ([7]; single agent): 6.66%
- G1 ([7]; single agent): 79.67%
- G2 ([7]; single agent): 9.91%
- S ([7]; single agent): 10.42%

SMILES: Nc1ncnc2c(CN3CC(O)[C@@H](CSCc4ccccc4)C3)c[nH]c12 (stereo partly drawn) [compound (1)]
- response of mouse lung cancer cells in culture ([12]; in the absence of MTA): not responding
- response of mouse lung cancer cells in culture ([12]; in the presence of 20 μM MTA): responding

SMILES: CSC[C@H]1N[C@@H](c2c[nH]c3c(N)ncnc23)C(O)C1O (stereo partly drawn) [compound (3)]
- Apoptosis ([7]; MTA+compound): 29.41%
- G1 ([7]; MTA+compound): 8.26%
- G2 ([7]; MTA+compound): 60.49%
- S ([7]; MTA+compound): 31.25%
- Apoptosis ([7]; single agent): 7.89%
- G1 ([7]; single agent): 72.06%
- S ([7]; single agent): 17.98%
- prostate cancer progression ([11]; TRAMP mice): inhibits prostate cancer progression
